Results: patent US20250025451A1, “TREATMENT OF CANCER WITH KDM4 INHIBITORS” (Celgene Corporation, priority 2021, published 2025)

Tested on: 301 cancer cell lines from different tumor types
Experiment: 2D cell viability inhibition assay, broad cancer cell line panel (OncoPanel; CellTiter-Glo)
Type: cell-based
Set-up: key to Emax: % of DMSO control (minimum response over dose range); AUC: scale not given here
Conditions: for AUC / Emax: 168 hours; for Emax: in % (unit assumed)
Protocol: In a larger screening study, compound 1 was evaluated across a broad cancer cell line panel (OncoPanel; HD Biosciences) composed of 301 cancer cell lines from different tumor types.
2D cell viability inhibition assays were performed in multiwell plates seeded with cells from the panel. After seeding, the plates were cultured overnight in a humidified incubator at 37° C. to promote adherence. Assays were initiated in individual wells by adding either DMSO as a vehicle control, growth media as a blank, or serially diluted compound 1 (10 μM to 0.0005 μM with 1:3 serial dilution). Cultures were incubated for 168 hours after which the number of viable cells in each test well was assessed using the CellTiter-Glo® Luminescent Cell Viability Assay. Luminescence readouts were performed using an EnVision® Multilabel Reader and the compound 1 readouts were normalized to the DMSO control readouts, expressed as a percent of the control. Outliers were flagged out by visual inspection. Percent of control was plotted against the corresponding compound 1 concentration and the absolute IC50 value was determined using four-parameter logistic non-linear regression as the concentration where inhibition was 50% of the control. […] Emax was recorded as the minimum in y with the compound dose range. […] The sensitive/moderate/resistant calls for each cell line was determined by visually inspecting the resulting clustering dendrogram. All the analyses were done in R Core Team.

[1] = Homo sapiens, NCI-H1650, 168 h, NCIH1650 (lung, bronchioloalveolar adenocarcinoma)
[2] = Homo sapiens, NCI-H1755, 168 h, NCIH1755 (lung, adenocarcinoma)
[3] = Homo sapiens, NCI-H1838, 168 h, NCIH1838 (lung, non-small cell carcinoma)
[4] = Homo sapiens, NCI-H2009, 168 h, NCIH2009 (lung, adenocarcinoma)
[5] = Homo sapiens, ONS-76, 168 h, ONS76 (central nervous system, NS)
[6] = Homo sapiens, OVCAR-3, 168 h, NIHOVCAR3 (ovary, NS)
[7] = Homo sapiens, RPMI-7951, 168 h, RPMI7951 (skin, NS)
[8] = Homo sapiens, SAOS-2, 168 h, SAOS2 (bone, NS)
[9] = Homo sapiens, SCC-9, 168 h, SCC9 (upper aerodigestive tract, squamous cell carcinoma)
[10] = Homo sapiens, SCC-15, 168 h, SCC15 (upper aerodigestive tract, squamous cell carcinoma)
[11] = Homo sapiens, SCC-25, 168 h, SCC25 (upper aerodigestive tract, squamous cell carcinoma)
[12] = Homo sapiens, SK-HEP1, 168 h, SKHEP1 (liver, adenocarcinoma)
[13] = Homo sapiens, SK-MEL-24, 168 h, SKMEL24 (skin, NS)
[14] = Homo sapiens, SK-N-SH, 168 h, SKNSH (autonomic ganglia, NS)
[15] = Homo sapiens, SK-OV-3, 168 h, SKOV3 (ovary, adenocarcinoma)
[16] = Homo sapiens, SNU-C1, 168 h, SNUC1 (large intestine, adenocarcinoma)
[17] = Homo sapiens, SW837, 168 h, SW837 (large intestine, adenocarcinoma)
[18] = Homo sapiens, SW1417, 168 h, SW1417 (large intestine, adenocarcinoma)
[19] = Homo sapiens, TE-15, 168 h, TE15 (oesophagus, squamous cell carcinoma)
[20] = Homo sapiens, UACC-812, 168 h, UACC812 (breast, ductal carcinoma)
[21] = Homo sapiens, VCaP, 168 h, VCAP (prostate, adenocarcinoma)
[22] = KASUMI1 (haematopoietic and lymphoid tissue, acute myeloid leukaemia)
[23] = KG1 (haematopoietic and lymphoid tissue, acute myeloid leukaemia)
[24] = KURAMOCHI (ovary, undifferentiated carcinoma)
[25] = KYSE70 (oesophagus, squamous cell carcinoma)
[26] = LU99 (lung, large cell carcinoma)
[27] = MDAMB157 (breast, ductal carcinoma)
[28] = MDAMB 175 VII (breast, ductal carcinoma)
[29] = NCI-H1435, 168 h, NCIH1435 (lung, non-small cell carcinoma)

CC(C)c1ccc(N(C)c2ccc3c(c2)OCC[C@H]3CNc2cnccc2C(=O)O)cc1 [Compound 1, 3-({[(4R)-7-{methyl[4-(propan-2-yl)phenyl]amino}-3,4-dihydro-2H-1-benzopyran-4-yl]methyl}amino)pyridine-4-carboxylic acid]
EC50 [1]: ≥ 10 µM | IC50 [1]: ≥ 10 µM | EC50 [2]: ≥ 10 µM | IC50 [2]: ≥ 10 µM | EC50 [3]: ≥ 10 µM | IC50 [3]: ≥ 10 µM | EC50 [4]: 8.02 µM | IC50 [4]: ≥ 10 µM | EC50 [5]: ≥ 10 µM | IC50 [5]: ≥ 10 µM | EC50 [6]: ≥ 10 µM | IC50 [6]: ≥ 10 µM | EC50 [7]: ≥ 10 µM | IC50 [7]: ≥ 10 µM | EC50 [8]: ≥ 10 µM | IC50 [8]: ≥ 10 µM | EC50 [9]: ≥ 10 µM | IC50 [9]: ≥ 10 µM | EC50 [10]: ≥ 10 µM | IC50 [10]: ≥ 10 µM | EC50 [11]: ≥ 10 µM | IC50 [11]: ≥ 10 µM | EC50 [12]: ≥ 10 µM | IC50 [12]: ≥ 10 µM | EC50 [13]: ≥ 10 µM | IC50 [13]: ≥ 10 µM | EC50 [14]: ≥ 10 µM | IC50 [14]: ≥ 10 µM | EC50 [15]: ≥ 10 µM | IC50 [15]: ≥ 10 µM | EC50 [16]: ≥ 10 µM | IC50 [16]: ≥ 10 µM | EC50 [17]: ≥ 10 µM | IC50 [17]: ≥ 10 µM | EC50 [18]: ≥ 10 µM | IC50 [18]: ≥ 10 µM | EC50 [19]: ≥ 10 µM | IC50 [19]: ≥ 10 µM | EC50 [20]: 6.95 µM | IC50 [20]: ≥ 10 µM | EC50 [21]: ≥ 10 µM | IC50 [21]: ≥ 10 µM | AUC [22]: 0.8823 | Emax [22]: 81.08 | AUC [23]: 0.9592 | Emax [23]: 80.44 | AUC [24]: 0.8742 | Emax [24]: 73.85 | AUC [25]: 0.6942 | Emax [25]: 50.19 | AUC [26]: 0.79 | Emax [26]: 64.66 | AUC (MALME3M (skin, NS)): 0.9867 | Emax (MALME3M (skin, NS)): 94.08 | AUC [27]: 0.8362 | Emax [27]: 64.71 | AUC [28]: 0.7385 | Emax [28]: 60.66 | AUC (MDAMB231 (breast, NS)): 0.7262 | Emax (MDAMB231 (breast, NS)): 55.94 | AUC (MDAMB361 (breast, NS)): 1.117 | Emax (MDAMB361 (breast, NS)): 94.55 | AUC (MDAMB415 (breast, NS)): 0.9413 | Emax (MDAMB415 (breast, NS)): 83.39 | AUC (MDAMB436 (breast, NS)): 0.8438 | Emax (MDAMB436 (breast, NS)): 70.42 | AUC (MDAMB468 (breast, NS)): 0.6972 | Emax (MDAMB468 (breast, NS)): 50.87 | AUC (MEWO (skin, NS)): 0.7237 | Emax (MEWO (skin, NS)): 56.56 | EC50 [29]: ≥ 10 µM | IC50 [29]: ≥ 10 µM
